Assay results as given in patent US9497963B2, “Methods and compositions for control of gypsy moth, Lymantria dispar” (Simon Fraser University, priority 2008, dated 2016).
Entries after “also recorded” stand apart in the source; their conditions may differ. Each block holds one compound with its values, some of them ahead of it.

Legend:
L. dispar PBP 1 = assay: Pheromone-binding protein (PBP) ligand binding assay, PBP1; parameters: species or system Lymantria dispar; settings: tested as single compound; means ± S.E., 4 replicates
Protocol: (§1) A. The protein and ligand are incubated in buffer overnight. B. For half of the incubation mixture, the free ligand (L) is separated from the protein-bound ligand (P.L) by size-exclusion chromatography on P2 Gel (BioRad, exclusion limit 2000 Da). The protein elutes from the small column bed, with its ligand bound (see Examples and […] et al. 2000; Staddon and Everton 1980), while the free ligand is retained on the column ([…] et al. 2000). C. […] The extract from the filtrate (B) contains the protein-bound ligand and the extract from the incubation mixture (A) contains all the ligand (bound and free) present in the aqueous phase. The extracts are analyzed by GC-MS, to obtain values for total ligand in solution (L+P.L) and for protein-bound ligand (P.L). These can then be used to calculate % bound (Table 3). These assays were performed as described in FIG. 3 and as follows: L. dispar PBP 1 or PBP 2 was incubated with the test compound or mini-library. The PBP and the ligand(s) (L) were left to equilibrate (eq 2) overnight. The non-bound ligand was then separated from the protein-bound material (PBP.L) by size-exclusion chromatography. By determining the total ligand in solution at equilibrium (eq. 3) and the protein-bound ligand, it is possible to estimate the percentage of ligand bound to the protein at equilibrium (eq. 4). […] This binding assay has been validated extensively in previous studies ([…] et al. 2000). The components of each mini-library separated cleanly by GC, so it was possible to monitor binding of individual components. PBP+L⇄PBP·L (eq. 2) [L]tot=[L]+[PBP·L] (eq. 3) % bound=100×[PBP·L]/[L]tot (eq. 4) Results: The members of each mini-library separated cleanly by GC, therefore it was possible to monitor binding of individual members to PBP1 or PBP2, the two known PBPs in the gypsy moth, by extraction from the aqueous incubation mixture, followed by GC analysis of the extract (FIG. 3).

L. dispar PBP 2 = assay: Pheromone-binding protein (PBP) ligand binding assay, PBP2; parameters: species or system Lymantria dispar; settings: tested as single compound; means ± S.E., 4 replicates
Protocol: as §1

[1] = tested on: male gypsy moth antenna response to pheromone (+)-1; assay: Decay of the long-term inhibitory effect and dose responses, EAG (Example 6); parameters: species or system Lymantria dispar; settings: 100 ng; maximal value, on average
Protocol: LTI dependence on the delay time of the pure (+)-1 puffs (v-vii, Example 6) after the mixed (+)-1/inhibitor puff. The amount of (+)-1 was varied from 10 ng to 1 μg and the amount of inhibitor was constant at 100 μg. FIG. 7B. Dose response of LTI with respect to variable (+)-1 responses and time responses for the strongest long-term inhibition of EAG responses towards (+)-1. FIG. 7C. Dose response of pure pheromone (+)-1. FIG. 7D.
This recovery usually took 5-7 s. The short-term inhibition STI(compound, dose) was calculated for each mixed plume. The long-term inhibition LTI(dose, time) was calculated for each dose and for each of the three puffs following the mixed pheromone-inhibitor plume.

gypsy moths = assay: Field test of trap catches, Northern Japan 2009 (Example 12); format: in vivo, Lymantria dispar; settings: (+)-dis 40 μg/lure & compound 40 mg/lure, vs (+)-dis alone
Protocol: Ten traps were used per treatment. The solvent used to deliver the compounds onto the lures was doubly distilled hexane. The hexane was evaporated prior to packing and shipping the lures. The field test was conducted in 10 replicates in Northern Japan. The test was conducted Aug. 16-18, 2009, in an area where gypsy moths are known to live. […] Traps were arranged randomized, placed on platforms. The experiment was conducted blind. The lures contained 40 μg disparlure/lure, a low dose for a field trial (typically 100 μg-1 mg are used). For each treatment, 10 traps were deployed.

[2] = tested on: male gypsy moth antenna response to pheromone (+)-1; assay: EAG short-term (STI) and long-term (LTI) inhibition of pheromone signaling (Example 5); parameters: species or system Lymantria dispar
Method in brief: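 Excised male gypsy moth antenna in saline pH 6.8 under purified air (300 mL/min); 0.3 s puffs: air, (+)-1 100 ng, (+)-1 plus compound 1, 10, 100 μg per cartridge, then (+)-1 alone. STI: mixed-puff air-corrected depolarization loss versus first pheromone puff; LTI: final pheromone-puff loss.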

[3] = tested on: male gypsy moth antennae response to pheromone (+)-1 with plant odors; assay: Effect on mixed pheromone/plant odorant stimulus, EAG (Example 8, second objective); parameters: species or system Lymantria dispar
Protocol: A second objective for this experiment was to determine whether the oak volatiles, methyl eugenol and 1-hexanol, can enhance the antennal response to (+)-1 and whether the mixed pheromone/plant odorant stimulus can be inhibited by compound 3c{2,3} or DEET. The puff order was: i) air, ii) pure (+)-1 (100 ng), iii) (+)-1 (100 ng) and plant odorant (1 μg for methyl eugenol and 100 μg for 1-hexanol), iv) (+)-1 and plant odorant as in iii+antagonist (100 μg), v) same as in iii. Depolarizations were corrected for the air response as in Eq. 1 and the short-term effects were calculated for puff iii relative to puff ii, and for puff iv relative to puff ii. Long-term effects were calculated for puff v relative to puff iii (for LTI of the mixed pheromone/plant odorant plume) and for puff v relative to puff ii (to determine whether long-term effects of the plant odorant and of the antagonist cancel).

[4] = tested on: third instar gypsy moth larvae; assay: Feeding deterrence, oak leaf disc choice test (Example 13); format: in vivo, Lymantria dispar
Protocol: Gypsy moth larvae were tested at the Canadian Forest Service, for feeding deterrence. A selected set of compounds, based on the results with the electroantennogram testing and also based on feeding deterrence assay results with the cabbage looper, T. ni. The experiment was done with third instar larvae and oak leaf discs. Larvae were left to choose between a treated and a control disc for 17.5 hours. Measurements of leaf areas were used to calculate the amount of leaf consumed from control (C) and treated (T) leaves. Feeding deterrence was calculated using the following formula: ((C−T)/(C+T))*100, and expressed in percent, where C=area of control leaf consumed and T=area of treated leaf consumed.

[5] = tested on: male gypsy moth antenna response to odorants other than (+)-1; assay: Long-term inhibition of responses to other pheromone and host plant odorants, EAG (Example 8, first objective); parameters: species or system Lymantria dispar; settings: for long-term activity (%) / short-term activity (%): antagonist 100 μg
Protocol: To determine whether the long-term inhibitory effects of 3c{2,3} and DEET are specific to (+)-1 or also apply to other odorants, compound 3c{2,3} and DEET were tested further with other odorants: (−)-1, racemic 1, dispar alkene, methyl eugenol and 1-hexanol.
These included (−)-1, racemic 1, dispar alkene (the alkene corresponding to the carbon framework of 1), methyl eugenol (a characteristic oak wood odorant) and 1-hexanol (a green leaf volatile, shown previously to be detected by gypsy moth antennae). For the pure odorant puffs, (−)-1 and racemic 1 were administered at 100 ng/cartridge, the alkene, methyl eugenol was administered at 1 μg/cartridge and 1-hexanol was administered at 100 μg/cartridge. The antagonists were both administered at 100 μg/cartridge, mixed with the appropriate dose of the odorant. The puff order was: i) air, ii) pure odorant, iii) odorant+antagonist, iv) pure odorant. All puffs were corrected for the air response as in Eq. 1. STI values were obtained from the depolarization […]. LTI values were obtained by comparing the depolarization of puff iv relative to that of puff ii.

male gypsy moth antenna = assay: Coupled gas chromatographic-electroantennographic detection (GC-EAD); parameters: species or system Lymantria dispar; settings: EAD peak size and shape (sharp/broad)
Method in brief: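 GC column effluent split between flame ionization detector and an excised male moth antenna held between saline-filled glass capillary electrodes, tip removed, in a warm air stream. Antennal potentials assigned to compounds by matching retention times with FID peaks.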

[6] = plant synergist 1-hexanol 100 μg
[7] = plant synergist methyl eugenol 1 μg
[8] = odorant racemic disparlure 100 ng

PBP1 (% bound) (L. dispar PBP 1): 54 ± 16%
PBP2 (% bound) (L. dispar PBP 2): 71 ± 23%
SMILES: CCCCCCCCCC[C@@H]1O[C@@H]1CCCCC(C)C (relative stereo) [(+)-disparlure, cis-(7R,8S)-7,8-epoxy-2-methyloctadecane, reference compound]
depolarization with pure pheromone [1]: 20 mV

SMILES: CCN(CC)C(=O)c1cccc(C)c1 [DEET, reference compound]
trap catches in the field (gypsy moths): enhanced the trap catches significantly
long-term inhibition (LTI) activity (in words) [2]: strongest long-term inhibitors; also recorded: strong LTI activity
Activity (%): short-term inhibition (STI) ([2]; mixed plume (+)-1 100 ng + compound 1 μg, negative = enhancement, mean ± S.E.): −165 ± 51 (5) %
Activity (%): short-term inhibition (STI) ([2]; mixed plume (+)-1 100 ng + compound 10 μg, negative = enhancement, mean ± S.E.): −214 ± 48 (5) %
Activity (%): short-term inhibition (STI) ([2]; mixed plume (+)-1 100 ng + compound 100 μg (puff v), negative = enhancement, mean ± S.E.): −203±42%
inhibition of the recovery phase (RI, R^1 activity) ([2]; mixed puff with highest dose (puff v)): 9±9%
Activity (%): long-term inhibition (LTI) ([2]; pure (+)-1 100 ng plume following mixed plume with 100 μg compound, mean ± S.E.): 78 ± 6 (5) %
short-term effect with plant synergist + antagonist ([3]; (+)-1 100 ng + 1-hexanol 100 μg + antagonist 100 μg): −339 ± 206 (5)
short-term effect with plant synergist + antagonist ([3]; (+)-1 100 ng + methyl eugenol 1 μg + antagonist 100 μg): −210 ± 120 (5)
long-term effect on (+)-1 response [3, 6]: −53 ± 48 (5)
long-term effect on the mixed (+)-1/plant odor plumes [3, 6]: −24 ± 19 (5)
long-term effect on (+)-1 response [3, 7]: 27 ± 29 (5)
long-term effect on the mixed (+)-1/plant odor plumes [3, 7]: 30 ± 27 (5)
Feeding Deterrence (%) ([4]; third instar larvae, oak leaf discs, choice between treated and control disc for 17.5 hours, ((C−T)/(C+T))*100): 47.76%
long-term activity (%) ([5]; odorant 1-hexanol 100 μg): 7 ± 18%
short-term activity (%) ([5]; odorant 1-hexanol 100 μg): 6 ± 30%
long-term activity (%) ([5]; odorant (−)-disparlure 100 ng): −10 ± 29%
short-term activity (%) ([5]; odorant (−)-disparlure 100 ng, negative = enhancement): −322 ± 66%
long-term activity (%) ([5]; odorant dispar alkene 1 μg): 52 ± 22%
long-term activity (%) ([5]; odorant methyl eugenol 1 μg): 8 ± 8%
long-term activity (%) [5, 8]: −126 ± 133%
short-term activity (%) [5, 8]: −468 ± 231%

SMILES: C=CCc1ccc(OC)c(OC)c1 [Me eugenol]
trap catches in the field (gypsy moths): enhanced the trap catches significantly
inhibition at 100 µg, 0.1 mg ([2]; Lymantria dispar, read-out: Activity (%): long-term inhibition (LTI), pure (+)-1 100 ng plume following mixed plume with 100 μg compound, mean ± S.E.): 8 ± 11%
inhibition at 0.001 mg ([2]; Lymantria dispar, read-out: Activity (%): short-term inhibition (STI), mixed plume (+)-1 100 ng + compound 1 μg, negative = enhancement, mean ± S.E.): -1 ± 13%
inhibition at 0.01 mg ([2]; Lymantria dispar, read-out: Activity (%): short-term inhibition (STI), mixed plume (+)-1 100 ng + compound 10 μg, negative = enhancement, mean ± S.E.): 76 ± 7%
inhibition at 0.1 mg ([2]; Lymantria dispar, read-out: Activity (%): short-term inhibition (STI), mixed plume (+)-1 100 ng + compound 100 μg (puff v), negative = enhancement, mean ± S.E.): -152 ± 30%
GC-EAD activity (male gypsy moth antenna): None
Feeding Deterrence (%) ([4]; foliar, 17.5 h): 81.15%
EAG response to the pure odorant (in words) [5]: same responses than clean air
